From the CheMixHub drug solubility set

Assay: xn = mol fraction of the nth substance listed, in the solute-free solvent

With `Cc1ncc(CO)c(CO)c1O.Cl` + O + CCCO the “solubility (g/100 g solution)” value (278.15 K, x2 = 0.3) was 0.893, the “solubility (g/100 g solution)” value (278.15 K, x2 = 0.4) was 1.59 and the “solubility (g/100 g solution)” value (278.15 K, x2 = 0.5) was 2.6. For the same compound, the “solubility (g/100 g solution)” value (278.15 K, x2 = 0.6) was 3.83, the “solubility (g/100 g solution)” value (278.15 K, x2 = 0.7) was 5.37 and the “solubility (g/100 g solution)” value (278.15 K, x2 = 0.8) was 6.99. The “solubility (g/100 g solution)” value (278.15 K, x2 = 0.9) was 8.57, the “solubility (g/100 g solution)” value (283.15 K, x2 = 0.3) was 1.08 and the “solubility (g/100 g solution)” value (283.15 K, x2 = 0.4) was 1.9. For the same compound, the “solubility (g/100 g solution)” value (283.15 K, x2 = 0.5) was 3.07, the “solubility (g/100 g solution)” value (283.15 K, x2 = 0.6) was 4.45 and the “solubility (g/100 g solution)” value (283.15 K, x2 = 0.7) was 6.24. The “solubility (g/100 g solution)” value (283.15 K, x2 = 0.8) was 8.36, the “solubility (g/100 g solution)” value (283.15 K, x2 = 0.9) was 10.3 and the “solubility (g/100 g solution)” value (288.15 K, x2 = 0.3) was 1.2. For the same compound, the “solubility (g/100 g solution)” value (288.15 K, x2 = 0.4) was 2.23, the “solubility (g/100 g solution)” value (288.15 K, x2 = 0.5) was 3.42 and the “solubility (g/100 g solution)” value (288.15 K, x2 = 0.6) was 4.91. For the same compound, the “solubility (g/100 g solution)” value (288.15 K, x2 = 0.7) was 6.84, the “solubility (g/100 g solution)” value (288.15 K, x2 = 0.8) was 9.28 and the “solubility (g/100 g solution)” value (288.15 K, x2 = 0.9) was 11.9. The “solubility (g/100 g solution)” value (293.15 K, x2 = 0.3) was 1.42, the “solubility (g/100 g solution)” value (293.15 K, x2 = 0.4) was 2.65 and the “solubility (g/100 g solution)” value (293.15 K, x2 = 0.5) was 4.1. For the same compound, the “solubility (g/100 g solution)” value (293.15 K, x2 = 0.6) was 6.02, the “solubility (g/100 g solution)” value (293.15 K, x2 = 0.7) was 8.27 and the “solubility (g/100 g solution)” value (293.15 K, x2 = 0.8) was 10.7. The “solubility (g/100 g solution)” value (293.15 K, x2 = 0.9) was 13.8, the “solubility (g/100 g solution)” value (298.15 K, x2 = 0.3) was 1.8 and the “solubility (g/100 g solution)” value (298.15 K, x2 = 0.4) was 3.25. The “solubility (g/100 g solution)” value (298.15 K, x2 = 0.5) was 5, the “solubility (g/100 g solution)” value (298.15 K, x2 = 0.6) was 7.03 and the “solubility (g/100 g solution)” value (298.15 K, x2 = 0.7) was 9.8. The “solubility (g/100 g solution)” value (298.15 K, x2 = 0.8) was 12.8, the “solubility (g/100 g solution)” value (298.15 K, x2 = 0.9) was 16 and the “solubility (g/100 g solution)” value (303.15 K, x2 = 0.3) was 2.05. The “solubility (g/100 g solution)” value (303.15 K, x2 = 0.4) was 3.59, the “solubility (g/100 g solution)” value (303.15 K, x2 = 0.5) was 5.68 and the “solubility (g/100 g solution)” value (303.15 K, x2 = 0.6) was 8.29. The “solubility (g/100 g solution)” value (303.15 K, x2 = 0.7) was 11.7, the “solubility (g/100 g solution)” value (303.15 K, x2 = 0.8) was 15.4 and the “solubility (g/100 g solution)” value (303.15 K, x2 = 0.9) was 19. The “solubility (g/100 g solution)” value (308.15 K, x2 = 0.3) was 2.29, the “solubility (g/100 g solution)” value (308.15 K, x2 = 0.4) was 4.15 and the “solubility (g/100 g solution)” value (308.15 K, x2 = 0.5) was 6.43. The “solubility (g/100 g solution)” value (308.15 K, x2 = 0.6) was 9.47, the “solubility (g/100 g solution)” value (308.15 K, x2 = 0.7) was 13.3 and the “solubility (g/100 g solution)” value (308.15 K, x2 = 0.8) was 17.8. The “solubility (g/100 g solution)” value (308.15 K, x2 = 0.9) was 21.1, the “solubility (g/100 g solution)” value (313.15 K, x2 = 0.3) was 2.62 and the “solubility (g/100 g solution)” value (313.15 K, x2 = 0.4) was 4.99. The “solubility (g/100 g solution)” value (313.15 K, x2 = 0.5) was 7.5, the “solubility (g/100 g solution)” value (313.15 K, x2 = 0.6) was 11.3 and the “solubility (g/100 g solution)” value (313.15 K, x2 = 0.7) was 15.1. The “solubility (g/100 g solution)” value (313.15 K, x2 = 0.8) was 19.6 and the “solubility (g/100 g solution)” value (313.15 K, x2 = 0.9) was 24.1.

In the case of `NC(=O)NC1NC(=O)NC1=O` (centres undefined) + O + CCO, the “solubility (g/100 g solution)” value (288.15 K, x2 = 0.264) is reported as 0.0433, the “solubility (g/100 g solution)” value (288.15 K, x2 = 0.447) is reported as 0.0924 and the “solubility (g/100 g solution)” value (288.15 K, x2 = 0.683) is reported as 0.159. For the same compound, the “solubility (g/100 g solution)” value (288.15 K, x2 = 0.829) was 0.239, the “solubility (g/100 g solution)” value (288.15 K, x2 = 0.928) was 0.264 and the “solubility (g/100 g solution)” value (293.15 K, x2 = 0.264) was 0.0548. The “solubility (g/100 g solution)” value (293.15 K, x2 = 0.447) was 0.108, the “solubility (g/100 g solution)” value (293.15 K, x2 = 0.683) was 0.202 and the “solubility (g/100 g solution)” value (293.15 K, x2 = 0.829) was 0.306. The “solubility (g/100 g solution)” value (293.15 K, x2 = 0.928) was 0.353, the “solubility (g/100 g solution)” value (298.15 K, x2 = 0.264) was 0.0707 and the “solubility (g/100 g solution)” value (298.15 K, x2 = 0.447) was 0.137. For the same compound, the “solubility (g/100 g solution)” value (298.15 K, x2 = 0.683) was 0.268, the “solubility (g/100 g solution)” value (298.15 K, x2 = 0.829) was 0.394 and the “solubility (g/100 g solution)” value (298.15 K, x2 = 0.928) was 0.5. The “solubility (g/100 g solution)” value (303.15 K, x2 = 0.264) was 0.0891, the “solubility (g/100 g solution)” value (303.15 K, x2 = 0.447) was 0.174 and the “solubility (g/100 g solution)” value (303.15 K, x2 = 0.683) was 0.332. The “solubility (g/100 g solution)” value (303.15 K, x2 = 0.829) was 0.487, the “solubility (g/100 g solution)” value (303.15 K, x2 = 0.928) was 0.619 and the “solubility (g/100 g solution)” value (308.15 K, x2 = 0.264) was 0.116. For the same compound, the “solubility (g/100 g solution)” value (308.15 K, x2 = 0.447) was 0.216, the “solubility (g/100 g solution)” value (308.15 K, x2 = 0.683) was 0.409 and the “solubility (g/100 g solution)” value (308.15 K, x2 = 0.829) was 0.63. For the same compound, the “solubility (g/100 g solution)” value (308.15 K, x2 = 0.928) was 0.787, the “solubility (g/100 g solution)” value (313.15 K, x2 = 0.264) was 0.137 and the “solubility (g/100 g solution)” value (313.15 K, x2 = 0.447) was 0.263. For the same compound, the “solubility (g/100 g solution)” value (313.15 K, x2 = 0.683) was 0.535, the “solubility (g/100 g solution)” value (313.15 K, x2 = 0.829) was 0.785 and the “solubility (g/100 g solution)” value (313.15 K, x2 = 0.928) was 0.968. For the same compound, the “solubility (g/100 g solution)” value (318.15 K, x2 = 0.264) was 0.163, the “solubility (g/100 g solution)” value (318.15 K, x2 = 0.447) was 0.298 and the “solubility (g/100 g solution)” value (318.15 K, x2 = 0.683) was 0.646. For the same compound, the “solubility (g/100 g solution)” value (318.15 K, x2 = 0.829) was 1.02, the “solubility (g/100 g solution)” value (318.15 K, x2 = 0.928) was 1.3 and the “solubility (g/100 g solution)” value (323.15 K, x2 = 0.264) was 0.189. For the same compound, the “solubility (g/100 g solution)” value (323.15 K, x2 = 0.447) was 0.355, the “solubility (g/100 g solution)” value (323.15 K, x2 = 0.683) was 0.76 and the “solubility (g/100 g solution)” value (323.15 K, x2 = 0.829) was 1.21. The “solubility (g/100 g solution)” value (323.15 K, x2 = 0.928) was 1.58, the “solubility (g/100 g solution)” value (328.15 K, x2 = 0.264) was 0.225 and the “solubility (g/100 g solution)” value (328.15 K, x2 = 0.447) was 0.417. The “solubility (g/100 g solution)” value (328.15 K, x2 = 0.683) was 0.923, the “solubility (g/100 g solution)” value (328.15 K, x2 = 0.829) was 1.48 and the “solubility (g/100 g solution)” value (328.15 K, x2 = 0.928) was 1.97. The “solubility (g/100 g solution)” value (333.15 K, x2 = 0.264) was 0.262, the “solubility (g/100 g solution)” value (333.15 K, x2 = 0.447) was 0.46 and the “solubility (g/100 g solution)” value (333.15 K, x2 = 0.683) was 1.09. The “solubility (g/100 g solution)” value (333.15 K, x2 = 0.829) was 1.74 and the “solubility (g/100 g solution)” value (333.15 K, x2 = 0.928) was 2.33.

With `C#CC1(O)C=CC2C3CCC4=CC(=O)CCC4C3CCC21CC` (centres undefined) + O + CO the “solubility (g/100 g solution)” value (288.15 K, x2 = 0.165) was 4.27, the “solubility (g/100 g solution)” value (288.15 K, x2 = 0.3077) was 3.7 and the “solubility (g/100 g solution)” value (288.15 K, x2 = 0.4325) was 1.93. For the same compound, the “solubility (g/100 g solution)” value (288.15 K, x2 = 0.5424) was 1.49, the “solubility (g/100 g solution)” value (288.15 K, x2 = 0.6401) was 1 and the “solubility (g/100 g solution)” value (288.15 K, x2 = 0.8058) was 0.438. For the same compound, the “solubility (g/100 g solution)” value (288.15 K, x2 = 0.8767) was 0.371 and the “solubility (g/100 g solution)” value (288.15 K, x2 = 0.9412) was 0.371.
